Measured values as given in patent publication US4416826A, “Peresters and use thereof” (priority 1980, dated 1983).

How the values were obtained:
[1] = Photodecomposition kinetics and quantum yields at 366 nm (benzophenone-benzhydrol actinometry); format: physicochemical
Protocol: Kinetic studies are carried out in degassed, sealed tubes by irradiating them with 366 nm light obtained from a Hanovia medium-pressure mercury lamp by combining the Corning Filters 0-52 and 7-60. The decompositions of the […] followed by the carbonyl IR absorption adjacent to the peroxide group (O=COO--) (1770 cm^-1). Benzophenone-benzhydrol redox actinometry are used throughout the study. In particular, a solution of […] (2 mL) in the appropriate solvent is placed in Pyrex tubes (12-mm diameter), degassed, and sealed under vacuum. Three cycles of freeze-thaw removes dissolved oxygen. The tubes are placed in a merry-go-round around a water-cooled light source, removed at different predetermined intervals, and kept frozen in liquid nitrogen in the dark until analysis is done. The estimation of […] done by quantitative IR, monitoring the carbonyl peak at 1770 cm^-1. […] Absorbance is measured with a 0.1 mm NaCl cell against solvent reference. With every run, two tubes containing actinometric solutions (benzophenone (0.1 M) and benzhydrol (0.05 M) in benzene are irradiated.

[2] = Thermal stability / thermal decomposition of peresters in the dark; format: physicochemical; conditions: 110° C., chlorobenzene, dark; initial concn Ia 5.01, Ib 5.15, Ic 5.19 × 10^-2 M
[3] = Triplet energy; format: physicochemical
[4] = Polymerization of methyl methacrylate; conditions: initiator 5 × 10^-2 M, [MMA] = 3.1 M, 25° C., benzene
Protocol: (§1) Commercial methyl methacrylate monomer is washed three times with 2% NaOH solution to remove stabilizer. It is then washed with distilled water three times, dried with molecular sieves, and distilled under vacuum before use. Polymerization solutions are prepared in cylindrical tubes which are degassed and sealed. The amount of polymer formed is determined by precipitating the polymer with an excess of methanol, washing with methanol, and filtering through fine sintered crucibles (previously weighed) followed by drying in a vacuum oven. The irradiation condition is the same as that in the decomposition rate example hereinabove.

[5] = Relative quantum yield of initiator decomposition in presence of monomer (IR at 1770 cm^-1); format: physicochemical; conditions: for relative quantum yield φrel of decomposition: benzene, initiator 2 × 10^-2 M
Protocol: (§2) Commercial styrene is washed three times with ice cold 2% NaOH solution followed by washing (four times) with distilled water. The styrene is dried over anhydrous CaCl2 and distilled under vacuum before use. The middle fraction of the distillate is used for polymerization. Solvents are purified by conventional means and distilled under N2 atmosphere.
(§3) The irradiations are carried out in degassed (three cycles of freeze-thaw under high vacuum) sealed 15-mm Pyrex tubes. The tubes are placed in a merry-go-round with a filtered UV source of 366 nm at the center and the yield of polymer is measured (below 10% conversion) gravimetrically. In all of the cases, tubes of the same size and same volume of solution are used. Number-average molecular weights of the purified polymers are determined by viscometry in a benzene solution. After the polymerization, an aliquot of 0.5 ml from each reaction tube is placed in 2-ml volumetric flasks. The solvent and excess monomer are evaporated under high vacuum for several hours. The remaining flask contents are dissolved in 0.5 ml of benzene or chloroform and the polymer is precipitated by adding 0.5 ml of n-hexane. The solution then is centrifuged and the IR of the centrifugate is measured to determine undecomposed perester. All of the above procedures are carried out as far as possible in the dark. The light intensity is measured by benzophenone-benzhydrol actinometry and observed to be Io =6.56×10^17 quanta/min on the average. The temperature of the tubes is maintained at 30° C.
The decomposition of the initiator employed is followed by IR at 1770 cm^-1 (caused by the carbonyl adjacent to the peroxy group) against an appropriate solvent blank. The initiators employed are .rho.-benzoylperoxybenzoic acid tert-butylester (Ia) and prior art benzophenone peroxide. In addition, the above procedure is repeated except that methyl methacrylate is employed in place of styrene. Table IX below illustrates the relative quantum yield for the decomposition of the initiators in the recited amounts of monomers, assuming that the quantum yield for the decomposition of the perester and peroxide in the absence of any monomer is one.

[6] = as above; format: physicochemical; conditions: benzene, initiator 2 × 10^-2 M
Protocol: as §1
The irradiations are carried out in degassed (three cycles of freeze-thaw under high vacuum) sealed 15-mm Pyrex tubes. The tubes are placed in a merry-go-round with a filtered UV source of 366 nm at the center and the yield of polymer is measured (below 10% conversion) gravimetrically. In all of the cases, tubes of the same size and same volume of solution are used. Number-average molecular weights of the purified polymers are determined by viscometry in a benzene solution. […] The solution then is centrifuged and the IR of the centrifugate is measured to determine undecomposed perester. […] The light intensity is measured by benzophenone-benzhydrol actinometry and observed to be Io =6.56×10^17 quanta/min on the average. […]

[7] = Photopolymerization of styrene, radical efficiency
Protocol: as §2, §3
The efficiency of the radicals to initiate polymerization, f, in the absence of any appreciable amount of chain transfer, can be defined as [formula] assuming bimolecular termination by the combination of two growing chains only [formula] whereas kd =rate of decomposition of perester in mol/liter sec. in the absence of monomer (a function of light intensity).

[8] = benzene, [I] 0.31 × 10^-3 M, [M] 3.5 M
[9] = benzene, [I] 0.63 × 10^-3 M, [M] 3.5 M
[10] = benzene, [I] 1.15 × 10^-3 M, [M] 3.5 M
[11] = benzene, [I] 2.52 × 10^-3 M, [M] 3.5 M
[12] = benzene, [I] 5.03 × 10^-3 M, [M] 3.5 M
[13] = benzene, [I] 8.05 × 10^-3 M, [M] 3.5 M
[14] = benzene, [I] 10.0 × 10^-3 M, [M] 2.0 M
[15] = benzene, [I] 10.0 × 10^-3 M, [M] 3.5 M
[16] = benzene, [I] 10.0 × 10^-3 M, [M] 5.0 M
[17] = chloroform, [I] 1.11 × 10^-3 M, [M] 4.33 M
[18] = chloroform, [I] 2.28 × 10^-3 M, [M] 4.33 M
[19] = chloroform, [I] 5.14 × 10^-3 M, [M] 4.33 M
[20] = chloroform, [I] 9.92 × 10^-3 M, [M] 4.33 M

photodecomposition behaviour, in words ([1]; 366 nm radiation, room temperature): decomposes smoothly at room temperature
apparent first-order photodecomposition rate constant kd × 10^4 ([1]; C6 H6, 25° C., 366 nm, I = 6.56 × 10^17 quanta/min, 5.03-6.06 × 10^-2 M, given as kd × 10^4): 1.84 s^-1
quantum yield of decomposition (φ of dec) ([1]; C6 H6, 366 nm, perester 5.03-6.06 × 10^-2 M): 0.94
quantum yield of decomposition (φ of dec) ([1]; CCl4, 3.56 × 10^-2 M, TBP 3.76 × 10^-2 M): 0.74
quantum yield of decomposition (φ of dec) ([1]; CCl4, 3.56 × 10^-2 M, no TBP): 0.90
quantum yield of decomposition (φ of dec) ([1]; CCl4, 4.78 × 10^-2 M, TBP 5.01 × 10^-2 M): 0.79
quantum yield of decomposition (φ of dec) ([1]; CCl4, 7.16 × 10^-2 M, no TBP): 1.05
quantum yield of decomposition (φ of dec) ([1]; methanol, TBP 5.08 × 10^-2 M, Ia 5.38, Ib 6.15 × 10^-2 M): 0.64
quantum yield of decomposition (φ of dec) ([1]; methanol, no TBP, Ia 5.38, Ib 6.15, Ic 5.10 × 10^-2 M): 2.77
thermal half-life t1/2 [2]: 6.7 h
triplet energy ET [3]: 67.7 kcal/mol
relative quantum yield φrel of decomposition ([5]; styrene 1.09 M): 0.25
relative quantum yield φrel of decomposition ([5]; styrene 2.19 M): 0.20
relative quantum yield φrel of decomposition ([5]; styrene 3.28 M): 0.14
relative quantum yield φrel of decomposition ([5]; styrene 4.37 M): 0.12
relative quantum yield φrel of decomposition ([5]; styrene 8.73 M): very low
relative quantum yield φrel of decomposition ([6]; methyl methacrylate 2.34 M): 0.88
relative quantum yield φrel of decomposition ([6]; methyl methacrylate 4.68 M): 0.80
kd, rate of decomposition of perester in the absence of monomer ([7]; Table X footnote): 0.000512 mol/L/s
φrel [7, 8]: 0.14
φrel [7, 9]: 0.14
φrel [7, 10]: 0.14
φrel [7, 11]: 0.14
φrel [7, 12]: 0.14
φrel [7, 13]: 0.14
φrel [7, 14]: 0.25
φrel [7, 15]: 0.14
φrel [7, 16]: 0.12
φrel ([7]; chloroform, [I] 0.14 × 10^-3 M, [M] not given): 1.32
φrel [7, 17]: 0.14
SMILES: CC(C)(C)OOC(=O)c1ccc(C(=O)c2ccccc2)cc1 [Ia, t-Butyl-4-Benzoylperbenzoate]
thermal 1st order dec rate × 10^5 [2]: 2.88 M × 10^5 s^-1
Rate of Polymerization (Rp) of MMA, Rp × 10^5 [4]: 8.33 mL^-1 s^-1
effect of styrene on quantum yield of decomposition, in words [5]: Styrene drastically reduces the quantum yield of decomposition
radical efficiency, in words [7]: approaches unity at low initiator concentrations
Average degree of polymerization [7, 8]: 320.4
Radical efficiency f [7, 8]: 0.92
Rp × 10^5 [7, 8]: 0.65 mole/liter sec
Average degree of polymerization [7, 9]: 166.7
Radical efficiency f [7, 9]: 1.21
Rp × 10^5 [7, 9]: 0.92 mole/liter sec
Average degree of polymerization [7, 10]: 155.5
Radical efficiency f [7, 10]: 1.00
Rp × 10^5 [7, 10]: 1.29 mole/liter sec
Average degree of polymerization [7, 11]: 102.8
Radical efficiency f [7, 11]: 0.79
Rp × 10^5 [7, 11]: 1.47 mole/liter sec
Average degree of polymerization [7, 12]: 85.7
Radical efficiency f [7, 12]: 0.56
Rp × 10^5 [7, 12]: 1.72 mole/liter sec
Average degree of polymerization [7, 13]: 77.2
Radical efficiency f [7, 13]: 0.41
Rp × 10^5 [7, 13]: 1.83 mole/liter sec
Average degree of polymerization [7, 14]: 48.0
Radical efficiency f [7, 14]: 0.16
Rp × 10^5 [7, 14]: 0.95 mole/liter sec
Average degree of polymerization [7, 15]: 137.2
Radical efficiency f [7, 15]: 0.15
Rp × 10^5 [7, 15]: 1.50 mole/liter sec
Average degree of polymerization [7, 16]: 219.2
Radical efficiency f [7, 16]: 0.16
Rp × 10^5 [7, 16]: 2.08 mole/liter sec
Average degree of polymerization [7, 17]: 186.0
Radical efficiency f [7, 17]: 0.89
Rp × 10^5 [7, 17]: 1.32 mole/liter sec
Average degree of polymerization [7, 18]: 130.0
Radical efficiency f [7, 18]: 0.86
Rp × 10^5 [7, 18]: 1.83 mole/liter sec
Average degree of polymerization [7, 19]: 102.9
Radical efficiency f [7, 19]: 0.37
Rp × 10^5 [7, 19]: 2.01 mole/liter sec
Average degree of polymerization [7, 20]: 80.5
Radical efficiency f [7, 20]: 0.40
Rp × 10^5 [7, 20]: 2.29 mole/liter sec
rate of polymerization of styrene, in words ([7]; same concentration of initiators and monomer): almost double
